Assay: Dynamic in-vivo fluorescence imaging of dye biodistribution after tail vein injection
Parameters: species or system mouse
Description: FIG. 1 illustrates one embodiment of a fluorescent dynamic optical imaging system 10 for imaging small animals such as mice. The imaging system 10 includes an optical detector 16 which is operable to acquire various images of the mouse. The imaging system 10 also includes a processor and display device 11 which is operable to generate and display other images of the mouse.
The system 10 also includes an imaging platform 12 for supporting a mouse in a desired arrangement, such as in a prone position or a supine position. In a preferred embodiment, mirrors 14 are arranged at 45 degree angles with respect to the imaging platform such that multiple views of the mouse, i.e., a top and/or bottom view, and side views of the mouse, are within the field of view of the optical detector 16, which is arranged above the imaging platform 12. Other embodiments can include other arrangements of optical detector 16 and mirrors to provide other views of the mouse. In one embodiment, the optical detector 16 is a cooled 14 bit charge coupled device (CCD) camera including a relay lens 19 and the field of view is approximately 9 cm by 9 cm. Thus, although the camera produces 2D images, these are “enhanced” 2D images since multiple views of the mouse are obtained.
Bifurcated liquid light guides 25 can be used to deliver light from the sources 18A, 18B to shine on the mouse. Other means can also be used. The light sources 18A, 18B and any corresponding filter elements are selected to have desired characteristics according to the optical contrast substances to be used in the imaging process. For example, when using a fluorescent dye such as indocyanine green (ICG) dye, light source 18A can include two laser diodes (160 mW total) to provide excitation light at 785 nm to excite the ICG dye. When using a fluorescent dye such as Dextran Texas Red dye, light source 18B can be a halogen light source, and a motorized filter wheel having a plurality of filter elements can be used to provide filtered light at a desired excitation wavelength range of 570 nm plus or minus 20 nm to excite the Dextran Texas Red dye. The respective light sources can be controlled by an electronic shutter in the 570 nm light path, or digital modulation of the laser diodes to allow synchronization of illumination with the filter elements, tunable filter, and image acquisition.
At process block 34, a second optical contrast substance is introduced or activated in the mouse. For example, a dye such as an ICG dye or a Dextran Texas Red dye can be used and can be injected into the tail vein of an anesthetized mouse. ICG dye is a good choice because it is widely available, clinically approved, and it excites and emits in the near infra-red (NIR) portion of the spectrum, which is advantageous in that light scatter is lower and penetration is higher at NIR wavelengths. In one embodiment, a dye consisting of 0.05 ml of 260 uM ICG dye (Cardiogreen, Fluka) is used. In another embodiment, […] of 360 uM of Dextran Texas Red dye (70,000 MW, Invitrogen) can be used.
At process block 38, a time series of anatomical image data sets of the second optical contrast substance is acquired using the optical detector, preferably while the animal is in the same desired arrangement. This should preferably be performed right after the second optical contrast is introduced. If the second optical contrast agent is a fluorescent dye, a light source having the appropriate spectral characteristics is applied to excite the fluorescent dye. […]

uptake by the liver (mouse, longer timescales, preliminary data): rapid and sustained uptake by the liver
fluorescence signal, initial organ distribution (prone mouse, tail vein injection, early images (first 15 seconds), initial circulation): initially the lungs are bright
SMILES: CC1(C)C(/C=C/C=C/C=C/C=C2\N(CCCCS(=O)(=O)O)c3ccc4ccccc4c3C2(C)C)=[N+](CCCCS(=O)(=O)[O-])c2ccc3ccccc3c21 [ICG, indocyanine green]
uptake by adipose tissue (mouse, longer timescales (25 minutes), preliminary data): late uptake by adipose tissue, remaining high after 25 minutes
distribution of dye in the body (prone mouse, by 117 seconds after injection): distributed fairly diffusely throughout the mouse
fluorescence signal, next organ distribution (prone mouse, tail vein injection, early images (first 15 seconds), after the lung phase): bright signal is seen in the brain, kidneys, spleen and spine

From patent US9220411B2, “In-vivo optical imaging method including analysis of dynamic images” (THE GENERAL HOSPITAL CORPORATION, priority 2006, dated 2015)
